Measurements: the NIST ThermoML archive (doi:10.1016/j.fluid.2016.01.011)
Numbers after ± are expanded uncertainties.

Columns and labels:
[1] = Molar enthalpy of transition or fusion; conditions: Crystal; DSC
[2] = Crystal; DTA

Molar enthalpy of transition or fusion [1]	Normal melting temperature [2]	SMILES
8.15 ± 0.215 kcal/mol	-4.91 ± 0.58 °C	CCCCC/C=C\C/C=C\CCCCCCCC(=O)O [(Z,Z)-9,12-octadecadienoic acid]
15.4 ± 0.55 kcal/mol	70.83 ± 0.61 °C	CCCCCCCCCCCCCCCCCC(=O)O [octadecanoic acid]
10.7 ± 0.406 kcal/mol	54.53 ± 0.84 °C	CCCCCCCCCCCCCC(=O)O [tetradecanoic acid]
